The values that follow come from PubChem BioAssay (NCI).

SMILES strings stand for the structures.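 Cells were grown in 96-well plates and exposed to each compound for 48 hours at five concentrations; endpoints were interpolated linearly between bracketing concentrations, or set to the highest concentration if not reached. Here, GI50 denotes the concentration required for 50% inhibition of growth. TGI: concentration producing complete growth inhibition.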 Some results are limits rather than exact numbers.

Test systems include A549 NSCLC; HT29 colon; K-562 leukemia; MOLT-4 leukemia; NCI-H460 lung; SF-268 CNS; SF-539 CNS; SK-MEL-28 melanoma; RXF 393 renal.
Assay in all cases: growth of human tumour cells (NCI), 48 h

Take `N.N.N.N.N.[Co+3].[I-].[N-]=[N+]=[N-]`: the GI50 in the assay on A549 NSCLC is more than 100 µM; in the assay on HT29 colon, more than 100 µM; with K-562 leukemia it was more than 100 µM; in the assay with MOLT-4 leukemia, 5.41 µM; in the assay on NCI-H460 lung, more than 100 µM; with SF-268 CNS it was more than 100 µM. In addition, the GI50 in the assay on SF-539 CNS and in the assay on SK-MEL-28 melanoma was more than 100 µM in each case. Besides, the TGI in the assay on A549 NSCLC, in the assay on HT29 colon, in the assay with K-562 leukemia, with MOLT-4 leukemia, in the assay on NCI-H460 lung and in the assay with SF-268 CNS was more than 100 µM each time. For the same molecule, the TGI in the assay on SF-539 CNS and with SK-MEL-28 melanoma was more than 100 µM each time.

In the case of `CCN1C/C(=C\c2cc(OC)c(OC)cc2OC)C(=O)/C(=C/c2cc(OC)c(OC)cc2OC)C1`, the GI50 was 3.67 µM with A549 NSCLC; 2.63 µM in the assay with HT29 colon; 3.58 µM with K-562 leukemia; 4.1 µM in the assay on MOLT-4 leukemia; 2.32 µM with RXF 393 renal; 2.61 µM in the assay with SF-539 CNS. Also, the GI50 with SK-MEL-28 melanoma was 2.48 µM. For the same molecule, the TGI is more than 100 µM with A549 NSCLC; 5.69 µM with HT29 colon; more than 100 µM in the assay with K-562 leukemia; 81.6 µM in the assay with MOLT-4 leukemia; 7.38 µM in the assay with RXF 393 renal; 7.33 µM with SF-539 CNS. The same molecule came in with a TGI in the assay with SK-MEL-28 melanoma of 5.6 µM.

With `N#Cc1c(-c2ccc(Cl)c(Cl)c2)c(-c2ccc(Cl)c(Cl)c2)nn(CC(=O)O)c1=O`, the TGI in the assay with A549 NSCLC is more than 100 µM; in the assay with HT29 colon it was more than 100 µM; in the assay on K-562 leukemia, more than 100 µM; in the assay on MOLT-4 leukemia it was more than 100 µM; in the assay with NCI-H460 lung, more than 100 µM; in the assay with RXF 393 renal, 53.9 µM. For the same molecule, in the assay on SK-MEL-28 melanoma, the TGI is more than 100 µM.

Consider `N#CCCN(c1ccc(C=Nc2ccccc2)cc1)S(=O)(=O)c1ccccc1`, for which the TGI in the assay on A549 NSCLC, in the assay on HT29 colon, in the assay with K-562 leukemia, in the assay on MOLT-4 leukemia, with SF-268 CNS and in the assay on SF-539 CNS was more than 100 µM throughout. The same molecule displayed a TGI in the assay on SK-MEL-28 melanoma of more than 100 µM.

On to `O=C1C2Nc3ccccc3SC2C(=O)N1c1ccc(Br)cc1` (stereo not drawn), for which the TGI in the assay with A549 NSCLC was more than 100 µM; in the assay with HT29 colon, more than 100 µM; in the assay on K-562 leukemia it was more than 100 µM; in the assay with MOLT-4 leukemia it was more than 100 µM; in the assay on NCI-H460 lung, more than 100 µM; in the assay with RXF 393 renal, 61.8 µM. The TGI with SF-268 CNS, in the assay with SF-539 CNS and in the assay with SK-MEL-28 melanoma was more than 100 µM throughout.

`C[C@@H](NC1CCCC[C@H]1O)c1ccccc1` (stereo partly drawn): the TGI in the assay with A549 NSCLC, in the assay on HT29 colon, with K-562 leukemia, in the assay with MOLT-4 leukemia, in the assay on NCI-H460 lung and with RXF 393 renal was more than 100 µM each time. Further, the TGI in the assay on SF-268 CNS, in the assay on SF-539 CNS and in the assay on SK-MEL-28 melanoma was more than 100 µM each time.

For `CCC(C)CCOC(=O)c1ccc(N=Cc2ccc(C=Nc3ccc(C(=O)OCCC(C)CC)cc3)cc2)cc1` (stereo not drawn), the TGI in the assay on A549 NSCLC, in the assay with HT29 colon, in the assay on K-562 leukemia, with MOLT-4 leukemia, in the assay on NCI-H460 lung and with RXF 393 renal was more than 100 µM each time. The TGI in the assay with SF-268 CNS, with SF-539 CNS and in the assay with SK-MEL-28 melanoma was more than 100 µM in each case.

For `Cc1nc(-n2nc(-c3ccccc3)cc2-c2ccccc2)sc1C(=O)/C=C/c1ccc(/C=C/C(=O)c2sc(-n3nc(-c4ccccc4)cc3-c3ccccc3)nc2C)cc1`, the TGI with A549 NSCLC was more than 100 µM; in the assay on HT29 colon it was 44.8 µM; in the assay with K-562 leukemia it was more than 100 µM; with MOLT-4 leukemia, 68.6 µM; with NCI-H460 lung it was 95.7 µM; with RXF 393 renal, 42.9 µM. The TGI with SF-268 CNS stood at 51.6 µM; with SF-539 CNS, 33.7 µM; in the assay on SK-MEL-28 melanoma it was 41.8 µM.

Regarding `CN(CCN1C(=O)c2cc([N+](=O)[O-])cc3cc([N+](=O)[O-])cc(c23)C1=O)CCN1C(=O)c2cc([N+](=O)[O-])cc3cc([N+](=O)[O-])cc(c23)C1=O`, the TGI with A549 NSCLC is more than 100 µM; with HT29 colon, more than 100 µM; with K-562 leukemia, more than 100 µM; with RXF 393 renal it was 1.04 µM; in the assay on SF-268 CNS, more than 100 µM; in the assay on SF-539 CNS, more than 58.8 µM. The molecule further came in with a TGI in the assay on SK-MEL-28 melanoma of 20.3 µM.

As to `Nc1ncnc2c1ncn2[C@]1(CO)C=C(CO)C(O)C1O` (stereo partly drawn), the TGI in the assay on A549 NSCLC, with HT29 colon, in the assay on MOLT-4 leukemia, with NCI-H460 lung, with RXF 393 renal and with SF-268 CNS was more than 100 µM each time. This molecule also yielded a TGI in the assay with SK-MEL-28 melanoma of more than 100 µM.

On to `Cc1cn(C2CC(O)C(COC(=O)c3ccccc3)O2)c(=O)[nH]c1=O` (stereo not drawn), for which the TGI in the assay with A549 NSCLC, with HT29 colon, in the assay on K-562 leukemia, in the assay on MOLT-4 leukemia, in the assay on NCI-H460 lung and in the assay on RXF 393 renal was more than 100 µM in each case. The TGI in the assay on SF-539 CNS and in the assay with SK-MEL-28 melanoma was more than 100 µM in each case.

For `Cc1ccc(S(=O)(=O)OCCn2cnc3nc(NC(=O)c4ccccc4)[nH]c(=O)c32)cc1`, the TGI in the assay on A549 NSCLC, with HT29 colon, with K-562 leukemia, in the assay on NCI-H460 lung, in the assay with RXF 393 renal and in the assay with SF-268 CNS was more than 100 µM throughout. The TGI with SF-539 CNS and in the assay with SK-MEL-28 melanoma was more than 100 µM each time.

In the case of `COc1ccc(C/C(=N/O)C(=O)NCCc2cc(Br)c(OCCCN(C)C)c(Br)c2)cc1Br`, the TGI turned out to be 38.4 µM in the assay on A549 NSCLC; 19.1 µM in the assay on HT29 colon; 33.4 µM with NCI-H460 lung; 38.5 µM in the assay on RXF 393 renal; 39.4 µM in the assay with SF-268 CNS; 29.6 µM in the assay on SF-539 CNS. Moreover, the TGI in the assay with SK-MEL-28 melanoma amounted to 35.2 µM.

As for `CC(C)(O)[C@@H]1CC[C@@]2(C)CCCC(O)C2(O)C1` (stereo partly drawn), the TGI in the assay with A549 NSCLC, with HT29 colon, in the assay on K-562 leukemia, in the assay on MOLT-4 leukemia, with NCI-H460 lung and in the assay on SF-268 CNS was more than 100 µM in each case. Besides, the TGI in the assay on SF-539 CNS and in the assay on SK-MEL-28 melanoma was more than 100 µM in each case.

For the molecule `Cn1cc(C(=O)c2ccccc2)c2ccccc2c1=O`, the TGI in the assay with A549 NSCLC, with HT29 colon, in the assay with MOLT-4 leukemia, in the assay on NCI-H460 lung, in the assay with RXF 393 renal and in the assay on SF-268 CNS was more than 100 µM throughout. For the same molecule, the TGI with SF-539 CNS and in the assay on SK-MEL-28 melanoma was more than 100 µM throughout.
